According to US20240025906A1 (NEURON23, INC., priority 2022, published 2024):

Tests used:
[1] = test system: JAK1/TYK2 pSTAT5 (Tyr694/699) in THP-1 cell line; assay: IFNa-stimulated JAK1/TYK2 pSTAT5 (Tyr694/699) inhibition cellular assay, AlphaLISA; format: cell-based; settings: Homo sapiens; THP-1 cells, IFNa-stimulated, AlphaLISA (Assay B); read-out: Cellular_THP1_IFNa-pSTATS_TYK2
Method: Assay B: JAK1/TYK2 pSTAT5 (Tyr694/699) inhibition IC50 Cellular Assays
To evaluate the inhibition effect of compounds disclosed herein against TYK2, an IFNa-stimulated JAE1/TYK2 pSTAT5 (Tyr694/699) quantification assay was conducted in the THP-1 cell line using an AlphaLISA detection method (PerkinElmer ALSU-PST5). Compounds in DMSO were serially diluted in a 96-well plate (10 mM starting concentration, 6-fold dilutions, 8 concentrations total) prior to dispensing of 8 nL into a 384-well plate using an I.DOT non-contact liquid handler (Dispendix). Cells were collected via centrifugation at 300 ref for 5 min and resuspended in Hanks' Balanced Salt Solution (Gibco 14175-079), and 6 μl containing 2e4 cells was dispensed into each well of the 384-well plate containing test compounds or DMSO alone (final concentrations: 10000, 1666.67, 277.78, 46.30, 7.72, 1.29, 0.21 and 0.04 nM). Cells were then incubated for 1 h at 37° C. with 5% CO2 prior to the addition of 2 μL IFNa (100 ng/mL; PBL Assay Science 11175-1). Following an additional 30 min incubation at 37° C. with 5% CO2, 2 μL of 5× lysis buffer was added to each well using the I.DOT […]. Plates were sealed and incubated at RT for 10 min on a plate shaker set to 400 RPM. Cell lysates were then frozen at −80° C. before subsequent detection of pSTAT5 by AlphaLISA. At the time of the detection assay, cell lysates were thawed for 5 min at room temperature and then on a plate shaker set to 400 RPM for an additional 10 min. Following the manufacturer recommended protocol (Perkin Elmer), 5 μL of acceptor bead master mix was added to each well; plates were then resealed and incubated for 2 min at RT on a plate shaker (400 rpm) prior to an additional 2-h incubation without agitation (protected from light). Donor bead master mix, 5 uL per well, was then added to each well before 2 min of shaking (RT, 400 rpm) and 2-h incubation (RT, no shaking, protected from light). Levels of pSTAT5 protein were then measured as fluorescent signal at 615 nm with an EnVision multimode plate reader (Perkin Elmer). IC50 values were calculated in Dotmatics using the four-parameter logistic curve regression model with bottom fixed to 0 and Hill Slope fixed to −1.

TYK2 JH2 = target: T1, TYK2 JH2 (Homo sapiens, UniProt P29597); assay: TYK2 JH2 binding assay (KINOMEscan KdELECT competitive binding); settings: TYK2 JH2 domain, DiscoverX KINOMEscan KdELECT (Assay A); read-out: Biochemical TYK2_DiscoverX_JH2_BND_Kd
T1 construct: purchased DiscoverX (KINOMEscan KdELECT service); host or cells: E. coli BL21-derived (T7 phage display) or HEK-293
T1 sequence (P29597 589-875 limits assumed): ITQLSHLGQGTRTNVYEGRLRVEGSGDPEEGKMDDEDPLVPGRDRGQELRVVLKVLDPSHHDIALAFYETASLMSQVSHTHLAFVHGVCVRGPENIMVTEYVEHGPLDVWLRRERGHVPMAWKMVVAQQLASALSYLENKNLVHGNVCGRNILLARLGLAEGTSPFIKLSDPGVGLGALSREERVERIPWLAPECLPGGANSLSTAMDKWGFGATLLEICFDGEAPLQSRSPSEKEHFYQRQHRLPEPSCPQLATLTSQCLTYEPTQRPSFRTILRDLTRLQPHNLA
Method: Assay A: TYK2 JH2 Binding Assay
Competitive binding studies using TKY2 JH2-domain fragments were conducted by DiscoverX using the KINOMEscan (KdELECT) platform. Kinase-tagged T7 phage strains were prepared in an E. coli host derived from the BL21 strain. E. coli were grown to log-phase and infected with […] and incubated with shaking at 32° C. until lysis. The lysates were centrifuged and filtered to remove cell debris. The remaining kinases were produced in HEK-293 cells and subsequently tagged with DNA for qPCR detection. Streptavidin-coated magnetic beads were treated with biotinylated small molecule ligands for 30 minutes at room temperature to generate affinity resins for kinase assays. The liganded beads were blocked with excess biotin and washed with blocking buffer (SeaBlock (Pierce), 1% BSA, 0.05% Tween 20, 1 mM DTT) to remove unbound ligand and to reduce non-specific binding. Binding reactions were assembled by combining kinases, liganded affinity beads, and test compounds in 1× binding buffer (20% SeaBlock, 0.17×PBS, 0.05% Tween 20, 6 mM DTT). Test compounds were prepared as 111× stocks in 100% DMSO. Kds were determined using an 11-point 3-fold compound dilution series with three DMSO control points. All compounds for Kd measurements are distributed by acoustic transfer (non-contact dispensing) in 100% DMSO. The compounds were then diluted directly into the assays such that the final concentration of DMSO was 0.9%. All reactions performed in polypropylene 384-well plate. Each was a final volume of 0.02 ml. The assay plates were incubated at room temperature with shaking for 1 hour and the affinity beads were washed with wash buffer (1×PBS, 0.05% Tween 20). The beads were then re-suspended in elution buffer (1×PBS, 0.05% Tween 20, 0.5 μM non-biotinylated affinity ligand) and incubated at room temperature with shaking for 30 minutes. The kinase concentration in the eluates was measured by qPCR.

SMILES	IC50 [1]	Kd (TYK2 JH2)
CNc1ncc(-c2nc3cc(C4CCN([C@@]5(C)COC[C@H]5O)CC4)ccc3o2)c2cc(NC(=O)C3CC3)ncc12 (racemic) [Example 260, N-(5-(5-(1-(4-hydroxy-3-methyltetrahydrofuran-3-yl)piperidin-4-yl)benzo[d]oxazol-2-yl)-8-(methylamino)-2,7-naphthyridin-3-yl)cyclopropanecarboxamide]	≤ 500 nM	≤ 100 nM
CNc1ncc(-c2nc3cc(N4C[C@@H](C)O[C@H](C)C4)ccc3o2)c2cc(NC(=O)C3CC3)ncc12 (racemic) [Example 316, N-(5-(5-(2,6-dimethylmorpholino)benzo[d]oxazol-2-y1)-8-(methylamino)-2,7-naphthyridin-3-yl)cyclopropanecarboxamide (trans racemate)]	≤ 500 nM	≤ 100 nM
CNc1ncc(-c2nc3cc(OC)ccc3o2)c2cc(NC(=O)[C@@H]3C[C@H]3C)ncc12 (racemic) [Example 382, N-(5-(5-methoxybenzo[d]oxazol-2-yl)-8-(methylamino)-2,7-naphthyridin-3-y1)-2-methylcyclopropane-1~carboxamide]	≤ 500 nM	≤ 100 nM
CNc1ncc(-c2nc3cc(OC)ccc3o2)c2cc(NC(=O)[C@@H]3C[C@@H]3C)ncc12 (racemic) [Example 383, N-(5-(5-methoxybenzo[d]oxazol-2-yl)-8-(methylamino)-2,7-naphthyridin-3-y1)-2-methylcyclopropane-1-carboxamide]	≤ 500 nM	≤ 100 nM
CNc1ncc(-c2nc3cc(OC)ccc3o2)c2cc(NC(=O)[C@@H]3C[C@H]3C#N)ncc12 (racemic) [Example 385, 2-cyano-N-(5-(5-methoxybenzo[d]oxazol-2-y1)-8-(methylamino)-2,7-naphthyridin-3-yl)cyclopropane-1-carboxamide]	≤ 500 nM	≤ 100 nM
CCOC(=O)[C@@H]1C[C@@H]1C(=O)Nc1cc2c(-c3nc4cc(OC)ccc4o3)cnc(NC)c2cn1 (racemic) [Example 391, ethyl 2-((5-(5-methoxybenzo[d]oxazol-2-yl)-8-(methylamino)-2,7-naphthyridin-3-yl)carbamoyl)cyclopropane-1-carboxylate]	≤ 500 nM	≤ 100 nM
CNc1ncc(-c2nc3cc(OC)ccc3o2)c2cc(NC(=O)[C@@H]3C[C@@H]3C(F)F)ncc12 (racemic) [Example 393, 2-(difluoromethyl)-N-(5-(5-methoxybenzo[d]oxazol-2-yl)-8-(methylamino)-2,7-naphthyridin-3-yl)cyclopropane-1-carboxamide]	≤ 500 nM	≤ 100 nM
CNc1ncc(-c2nc3cc(OC)ccc3o2)c2cc(NC(=O)[C@@H]3C[C@@H]3C(F)(F)F)ncc12 (racemic) [Example 396, N-(5-(5-methoxybenzo[d]oxazol-2-yl)-8-(methylamino)-2,7-naphthyridin-3-yl)-2-(trifluoromethyl)cyclopropane-1-carboxamide]	≤ 500 nM	≤ 100 nM
CNc1ncc(-c2nc3cc(OC)ccc3o2)c2cc(NC(=O)[C@@H]3C[C@@H]3CF)ncc12 (racemic) [Example 399, 2-(fluoromethyl)-N-(5-(5-methoxybenzo[d]oxazol-2-yl)-8-(methylamino)-2,7-naphthyridin-3-yl)cyclopropane-1-carboxamide]	≤ 500 nM	≤ 100 nM
CNc1ncc(-c2nc3cc(OC)ccc3o2)c2cc(NC(=O)[C@H]3C[C@H]3C(C)(C)O)ncc12 (racemic) [Example 405, 2-(2-hydroxypropan-2-yl)-N-(5-(5-methoxybenzo[d]oxazol-2-yl)-8-(methylamino)-2,7-naphthyridin-3-yl)cyclopropane-1-carboxamide]	≤ 500 nM	≤ 100 nM
CNc1ncc(-c2nc3cc(OC)ccc3o2)c2cc(NC(=O)[C@H]3C[C@@H]3C(C)(C)O)ncc12 (racemic) [Example 406, 2-(2-hydroxypropan-2-yl)-N-(5-(5-methoxybenzo[d]oxazol-2-yl)-8-(methylamino)-2,7-naphthyridin-3-yl)cyclopropane-1-carboxamide]	≤ 500 nM	≤ 100 nM
